Results: article PMC8538057, “Direct Delivery of ANA-TA9, a Peptide Capable of Aβ Hydrolysis, to the Brain by Intranasal Administration” (Pharmaceutics, 2021)
Ends that are not written are not given here.

Experiments:
[1] = In vitro stability in the cerebrospinal fluid; assay type: in vitro ADME; settings: cerebrospinal fluid (CSF), rat CSF, 37 °C, LC/MS without treatment, three experiments
Description: (§1) After the anesthetization of rats with an i.p. application of the anesthetic mixture, the cerebrospinal fluid (CSF) was collected by cisternal puncture, followed by the collection of whole blood from the polyethylene cannula inserted into the right femoral artery. The blood was heparinized and centrifuged at 15,000 rpm for 10 min at 4 °C, and the supernatant was collected as plasma.
(§2) ANA-TA9 was dissolved in PBS at a concentration of 0.1 mg/mL or 1 mg/mL. Immediately before the incubation, 5 μL or 10 μL of the ANA-TA9 solution was added to 45 μL or 90 μL of CSF or plasma, respectively. Similarly, 10 μL of the ANA-TA9 solution was added to 90 μL of whole blood. At predetermined times after the incubation at 37 °C, the samples were cooled by placing them on ice. Methanol (1 mL) was added to the plasma and whole blood for deproteinization. The mixtures were then vortexed and centrifuged at 15,000 rpm for 5 min at 4 °C. […] The concentrations of ANA-TA9 in the plasma and whole blood were measured by LC/MS. The ANA-TA9 concentrations were measured in the CSF samples by LC/MS without any treatments.
(§3) Chromatographic separation was performed using a C18 analytical column (TSKgel ODS 100V, 3 μm, 2.0 mm × 100 mm; TOSOH, Tokyo, Japan). […] ANA-TA9 eluting from the column was detected with mass spectrometry under the positive mode. […] The calibration curves of ANA-TA9 in the plasma and the brain were determined.

[2] = Degradation of ANA-TA9 in the rat nasal cavity (nasal perfusion); assay type: in vivo; settings: 15 mL PBS at 10 μg/mL, 120 min, LC/MS, mean of three experiments
Description: Polyethylene tubing was inserted into the rat esophagus and trachea according to the method of Hirai et al.. Briefly, under anesthesia with the anesthetic mixture described in Section 2.3.2, the trachea was cannulated with polyethylene tubing, and another tube was inserted from the esophagus to the posterior part of the nasal cavity. The nasopalatine was closed with surgical adhesive. A solution of ANA-TA9 (15 mL PBS at 10 μg/mL) was perfused from the esophagus through the nasal cavity using a peristaltic pump (SJ-1211-H; ATTO, Tokyo, Japan). The perfusing solution of ANA-TA9 was sampled at predetermined times. The ANA-TA9 concentration in the perfusate was measured by liquid chromatography-mass spectrometry (LC/MS) after the same pretreatment as that of the plasma described in Section 2.4.2.

[3] = In vitro stability in the plasma; assay type: in vitro ADME; settings: rat plasma, 10 μL ANA-TA9 PBS solution (0.1 mg/mL or 1 mg/mL) added to 90 μL plasma, 37 °C, methanol deproteinization, LC/MS, three experiments
Description: as §1, §2, §3

**Q.** What does the source list for SKGQAYRMI [ANA-TA9]?
**A.** remaining at 0.5 h ([1]; 5 μL ANA-TA9 PBS solution (0.1 mg/mL or 1 mg/mL) added to 45 μL CSF, 30 min, read-out: CSF concentration remaining at 30 min after the start of the incubation): 74%; remaining at 2 h ([1]; 5 μL ANA-TA9 PBS solution added to 45 μL CSF, 2 h, read-out: CSF concentration remaining at 2 h after the start of the incubation): 46%; concentration in the nasal perfusate, % of the initial concentration [2]: 54%; concentration of ANA-TA9 in the plasma at 5 min after the start of the incubation [3]: 20000 ng/mL
